Results: US20240287138A1, “CYCLIC PEPTIDES FOR INHIBITING TNF RECEPTOR 1 ACTIVITY” (Merck Sharp & Dohme LLC, priority 2023, published 2024)
pIC50: −log10 of the molar value. Numbered stars: 1 amine (or outer) side, 2 acyl side, 3 side chain; on linkers, the order of the positions; unused ones are H or OH. Bridge positions count the residues as written; N and C are the ends. Square brackets hold non-standard residues; d marks the D form. Peptide text beside a SMILES is read from it. Trp(βS-Me,7-OMe) = COc1cccc2c([C@H](C)[C@H](N)C(=O)O)c[nH]c12; Acbc(cis-1,3) = O=C([C@H]1C[C@@H](N[*:1])C1)[*:2]; Trp(7-Cl) = N[C@@H](Cc1c[nH]c2c(Cl)cccc12)C(=O)O; Ala(pyrimidin-5-yl) = N[C@@H](Cc1cncnc1)C(=O)O; Phe(4-COOH) = N[C@@H](Cc1ccc(C(=O)O)cc1)C(=O)O; Trp(7-aza) = N[C@@H](Cc1c[nH]c2ncccc12)C(=O)O; X41 = O=C([C@@H]1C[C@H](O)CCN1[*:1])[*:2]; Pip(4-aza) = O=C(O)[C@@H]1CNCCN1; 4Pal = N[C@@H](Cc1ccncc1)C(=O)O; NMeE = CN[C@@H](CCC(=O)O)C(=O)O; d(αMeP) = C[C@]1(C(=O)O)CCCN1; αMeS = C[C@](N)(CO)C(=O)O; Nle = CCCC[C@H](N)C(=O)O; Sar = CNCC(=O)O

molecular target: T1, TNFα-induced NF-κB signal transduction pathway (TNFR1 signaling) in THP-1 cells (Homo sapiens, UniProt P19438); experiment: THP-1 Lucia NF-κB reporter cell assay, inhibition of TNFα-induced NF-κB signaling; type: cell-based; details: THP-1 NF-κB Lucia reporter cells, 10 ng/mL TNFα, 16-18 h, secreted luciferase; read-out: THP-1 IC50
T1 sequence (P19438 30-455): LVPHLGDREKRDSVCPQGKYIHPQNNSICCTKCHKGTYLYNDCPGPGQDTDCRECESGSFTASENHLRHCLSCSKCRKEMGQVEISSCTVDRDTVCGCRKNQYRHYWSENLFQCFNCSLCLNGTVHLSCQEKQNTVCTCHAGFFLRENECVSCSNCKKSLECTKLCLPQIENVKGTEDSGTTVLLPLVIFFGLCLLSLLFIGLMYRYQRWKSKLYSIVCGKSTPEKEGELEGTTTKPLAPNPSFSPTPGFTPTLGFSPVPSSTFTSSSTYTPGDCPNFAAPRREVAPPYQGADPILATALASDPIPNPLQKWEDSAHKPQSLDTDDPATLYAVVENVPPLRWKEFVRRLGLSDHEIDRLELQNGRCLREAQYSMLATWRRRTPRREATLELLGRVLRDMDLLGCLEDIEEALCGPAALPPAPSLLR
Experimental: C. Procedure for THP-1 Lucia NF-κB cells
The inhibition of TNFα-induced NF-κB signal transduction pathways was evaluated in THP-1 cells. THP-1 cells harboring NF-κB-inducible Lucia™ reporter gene (InvivoGen, cat. #thp1-nfkb) designed for monitoring NF-κB signal transduction pathway was employed to assess the inhibitory effect macrocyclic peptides on TNFR1 signaling. The cells were cultured in media containing RPMI 1640, 2 mM L-glutamine, 25 mM HEPES, 10% heat-inactivated fetal bovine serum with appropriate selection antibiotics. Assays were performed in media that was devoid of selection antibiotics. For profiling, 125 nL of peptides in DMSO (10 mM) were dispensed into Falcon® 384-well Optilux white/clear flat bottom TC-treated microtest microplate (Corning, cat. #353963) using Echo® 555. […] A suspension of 1 million cells/mL was dispensed at 20 μL/well in a 384-well plate to a density of 20,000 cells/well and pre-incubated with peptides at 37° C. for 1 h. Subsequently, 5 μL of TNF containing media (recombinant human TNFα; R&D Systems USA, cat. #210-TA-005/CF) or TNF-free media (for controls) was added to the wells. The final concentration of TNFα in the assay in 10 ng/mL. After o.n. incubation at 37° C. (16-18 h), 5 μL of supernatant was aspirated and transferred to a 384-well microplate (PerkinElmer, cat. #6007680) for measurement of secreted luciferase activity with 25 μL of QUANTI-Luc™ luminescence assay reagent (InvivoGen, cat. #rep-qlc1) in each well. The luminescence was measured in EnVision® Multimode Plate Reader (PerkinElmer). Dose response curves were analyzed using a 4-parameter logistic model to calculate IC50 values, reported in Table 2, using TIBCO® Spotfire® software employing appropriate Minimum and Maximum controls.

| SMILES | pIC50 |
| --- | --- |
| CCCC[C@@H]1NC(=O)CSC[C@@H](C(N)=O)NC(=O)[C@H]([C@@H](C)c2c[nH]c3c(OC)cccc23)NC(=O)CN(C)C(=O)[C@H](Cc2ccc(O)cc2)NC(=O)[C@H](Cc2ccc(C(=O)O)cc2)NC(=O)[C@](C)(CO)NC(=O)[C@H](Cc2c[nH]c3c(Cl)cccc23)NC(=O)[C@H](Cc2ccncc2)NC(=O)[C@H](CC(N)=O)NC(=O)[C@H](CCC(=O)O)N(C)C(=O)[C@H](Cc2c[nH]c3ncccc23)NC(=O)[C@@H]2CNCCN2C(=O)[C@H](Cc2cncnc2)NC1=O [SEQ ID NO. 65] ({CH2CO}-[Nle][Ala(pyrimidin-5-yl)][Pip(4-aza)][Trp(7-aza)][NMeE]N[4Pal][Trp(7-Cl)][αMeS][Phe(4-COOH)]Y[Sar][Trp(βS-Me,7-OMe)]C-NH2; thioether N-14) | 8.40 |
| CCCC[C@@H]1NC(=O)[C@H]2C[C@H](C2)NC(=O)[C@H]([C@@H](C)c2c[nH]c3c(OC)cccc23)NC(=O)CN(C)C(=O)[C@H](Cc2ccc(O)cc2)NC(=O)[C@H](Cc2ccc(C(=O)O)cc2)NC(=O)[C@](C)(CO)NC(=O)[C@H](Cc2c[nH]c3c(Cl)cccc23)NC(=O)[C@H](Cc2ccncc2)NC(=O)[C@H](CC(N)=O)NC(=O)[C@H](CCC(=O)O)N(C)C(=O)[C@H](Cc2c[nH]c3ccccc23)NC(=O)[C@@H]2CNCCN2C(=O)[C@H](Cc2ccncc2)NC1=O [SEQ ID NO. 69] (cyclo([4Pal][Trp(7-Cl)][αMeS][Phe(4-COOH)]Y[Sar][Trp(βS-Me,7-OMe)][Acbc(cis-1,3)][Nle][4Pal][Pip(4-aza)]W[NMeE]N)) | 8.80 |
| CCCC[C@@H]1NC(=O)CSC[C@@H](C(N)=O)NC(=O)[C@H]([C@@H](C)c2c[nH]c3c(OC)cccc23)NC(=O)CN(C)C(=O)[C@H](Cc2ccc(O)cc2)NC(=O)[C@H](Cc2ccc(C(=O)O)cc2)NC(=O)[C@](C)(CO)NC(=O)[C@H](Cc2c[nH]c3c(Cl)cccc23)NC(=O)[C@H](Cc2ccncc2)NC(=O)[C@H](CC(N)=O)NC(=O)[C@H](CCC(=O)O)N(C)C(=O)[C@H](Cc2c[nH]c3ccccc23)NC(=O)[C@@H]2C[C@H](O)CCN2C(=O)[C@H](Cc2ccncc2)NC1=O [SEQ ID NO. 71] ({CH2CO}-[Nle][4Pal][X41]W[NMeE]N[4Pal][Trp(7-Cl)][αMeS][Phe(4-COOH)]Y[Sar][Trp(βS-Me,7-OMe)]C-NH2; thioether N-14) | 8.55 |
| CCCC[C@@H]1NC(=O)CSC[C@@H](C(N)=O)NC(=O)[C@H]([C@@H](C)c2c[nH]c3c(OC)cccc23)NC(=O)CN(C)C(=O)[C@H](Cc2ccc(O)cc2)NC(=O)[C@H](Cc2ccc(C(=O)O)cc2)NC(=O)[C@](C)(CO)NC(=O)[C@H](Cc2c[nH]c3c(Cl)cccc23)NC(=O)[C@H](Cc2ccncc2)NC(=O)[C@H](CCC(=O)N(C)C)NC(=O)[C@H](CCC(=O)O)N(C)C(=O)[C@H](Cc2c[nH]c3ccccc23)NC(=O)[C@@H]2CNCCN2C(=O)[C@H](Cc2ccncc2)NC1=O [SEQ ID NO. 75] ({CH2CO}-[Nle][4Pal][Pip(4-aza)]W[NMeE]E(NMe2)[4Pal][Trp(7-Cl)][αMeS][Phe(4-COOH)]Y[Sar][Trp(βS-Me,7-OMe)]C-NH2; thioether N-14) | 8.21 |
| CCCC[C@@H]1NC(=O)CSC[C@@H](C(N)=O)NC(=O)[C@H]([C@@H](C)c2c[nH]c3c(OC)cccc23)NC(=O)CN(C)C(=O)[C@H](Cc2ccc(O)cc2)NC(=O)[C@H](Cc2ccc(C(=O)O)cc2)NC(=O)[C@](C)(CO)NC(=O)[C@H](Cc2c[nH]c3c(Cl)cccc23)NC(=O)[C@H](Cc2ccncc2)NC(=O)[C@H](CC(N)=O)NC(=O)[C@@]2(C)CCCN2C(=O)[C@H](Cc2c[nH]c3ccccc23)NC(=O)[C@@H]2CNCCN2C(=O)[C@H](Cc2ccncc2)NC1=O [SEQ ID NO. 76] ({CH2CO}-[Nle][4Pal][Pip(4-aza)]W[d(αMeP)]N[4Pal][Trp(7-Cl)][αMeS][Phe(4-COOH)]Y[Sar][Trp(βS-Me,7-OMe)]C-NH2; thioether N-14) | 8.33 |
